Experimental data taken from patent US20070128217A1 (priority 2003, published 2007).

How the values were obtained:
[1] = tested on: control sera (pooled serum of ten healthy LUMC hospital workers; commercial negative donor pooled serum from the Dutch bloodbank); assay type: binding, human; parameters: Binding of Control serum LUMC to linear peptides / Binding of Control serum Blood-bank to linear peptides / Binding of Control serum LUMC to looped peptides / Binding of Control Serum Blood-Bank to Looped peptides / Binding of Control serum LUMC to linear peptides of the protein M of SARS-CoV Urbani / Binding of Control serum Blood-bank to linear peptides of the protein M of SARS-CoV Urbani / Binding of Control serum LUMC to looped peptides of the protein M of SARS-CoV Urbani / Binding of Control Serum Blood-Bank to Looped peptides of the protein M of SARS-CoV Urbani: unit not given here
[2] = tested on: recombinant human anti-SARS-CoV antibody 03-018; assay type: binding; parameters: Binding of antibody 03-018 to linear peptides of the N protein of SARS-CoV Urbani / Binding of antibody 03-018 to looped/cyclic peptides of the N protein of SARS-CoV Urbani: unit not given here
[3] = tested on: antibodies in sera from SARS patients (sera 1a, 1b, 2, 6, 37, 62, London, SARS-yellow, SARS-green); assay type: binding, human; parameters: Binding of serum 6 to linear peptides of protein X1 of SARS-CoV Urbani / Binding of serum 37 to linear peptides of protein X1 of SARS-CoV Urbani / Binding of serum 6 to looped/cyclic peptide (PEPSCAN-ELISA) / Binding of serum 37 to looped/cyclic peptide (PEPSCAN-ELISA) / Binding of serum 37 to looped/cyclic peptides of protein X1 of SARS-CoV Urbani / Binding of serum 6 to linear peptides of protein X2 / Binding of serum 37 to linear peptides of protein X2 / Binding of serum 37 to looped/cyclic peptides of protein X2 of SARS-CoV Urbani / Binding of serum 6 to linear peptides of protein M of SARS-CoV Urbani / Binding of serum 37 to linear peptides of protein M of SARS-CoV Urbani / Binding of serum 6 to looped/cyclic peptides of protein M of SARS-CoV Urbani / Binding of serum 37 to looped/cyclic peptides of protein M of SARS-CoV Urbani / Binding of serum 6 to linear peptides of protein X3 of SARS-CoV Urbani / Binding of serum 37 to linear peptides of protein X3 of SARS-CoV Urbani / Binding of serum 37 to looped/cyclic peptides of protein X3 of SARS-CoV Urbani / Binding of serum 6 to linear peptides of protein X4 of SARS-CoV Urbani / Binding of serum 37 to linear peptides of protein X4 of SARS-CoV Urbani / Binding of serum 37 to looped/cyclic peptides of protein X4 of SARS-CoV Urbani / Binding of serum 6 to linear peptides of protein X5 of SARS-CoV Urbani / Binding of serum 37 to linear peptides of protein X5 of SARS-CoV Urbani / Binding of serum 37 to looped/cyclic peptides of protein X5 of SARS-CoV Urbani / Binding of serum 6 to linear peptides of protein N of SARS-CoV Urbani / Binding of serum 37 to linear peptides of protein N of SARS-CoV Urbani / Binding of serum 6 to linear peptide (PEPSCAN-ELISA) / Binding of serum 1a to looped/cyclic peptides of protein N of SARS-CoV Urbani / Binding of serum 1b to looped/cyclic peptides of protein N of SARS-CoV Urbani / Binding of serum 2 to looped/cyclic peptides of protein N of SARS-CoV Urbani / Binding of serum 6 to looped/cyclic peptides of protein N of SARS-CoV Urbani / Binding of serum 37 to looped/cyclic peptides of protein N of SARS-CoV Urbani / Binding of serum 62 to looped/cyclic peptides of protein N of SARS-CoV Urbani / Binding of serum London to looped/cyclic peptides of protein N of SARS-CoV Urbani / Binding of serum SARS-green to looped/cyclic peptides of protein N of SARS-CoV Urbani: unit not given here
[4] = tested on: rabbit serum obtained by immunizing a rabbit with the SARS-CoV strain Frankfurt 1; assay type: binding; parameters: Binding of a rabbit serum to linear peptides / Binding of a rabbit serum to looped peptides / Rabbit serum linear peptides / Rabbit serum looped peptides / Binding of a rabbit serum to linear peptides of protein N of SARS-CoV Urbani (Rabbit serum linear peptides) / Binding of a rabbit serum to looped/cyclic peptides of protein N of SARS-CoV Urbani (Rabbit serum looped peptides): unit not given here

**Q.** For VPINTNSGPDDQIGY, which “Binding of Control Serum Blood-Bank to Looped peptides” value [1] is on record?
**A.** 0.8

**Q.** And the “Binding of Control serum Blood-bank to linear peptides” value [1]?
**A.** 0.7

**Q.** What about the “Binding of Control serum LUMC to linear peptides” value [1] of the same sequence?
**A.** 0.8

**Q.** And the “Binding of Control serum LUMC to looped peptides” value [1]?
**A.** 0.7

**Q.** What about the “Binding of antibody 03-018 to linear peptides of the N protein of SARS-CoV Urbani” value [2] of the same sequence?
**A.** 0.1

**Q.** And the “Binding of antibody 03-018 to looped/cyclic peptides of the N protein of SARS-CoV Urbani” value [2]?
**A.** 0.2

**Q.** What about the “Binding of serum 1a to linear peptides of protein N of SARS-CoV Urbani” value [3] of the same sequence?
**A.** 0.3

**Q.** What about the “Binding of serum 1a to looped/cyclic peptides of protein N of SARS-CoV Urbani” value [3] of the same sequence?
**A.** 0.5

**Q.** And the “Binding of serum 1b to linear peptides of protein N of SARS-CoV Urbani” value [3]?
**A.** 0.2

**Q.** What about the “Binding of serum 1b to looped/cyclic peptides of protein N of SARS-CoV Urbani” value [3] of the same sequence?
**A.** 0.4

**Q.** And the “Binding of serum 2 to linear peptides of protein N of SARS-CoV Urbani” value [3]?
**A.** 0.2

**Q.** And the “Binding of serum 2 to looped/cyclic peptides of protein N of SARS-CoV Urbani” value [3]?
**A.** 0.4

**Q.** And the “Binding of serum 6 to linear peptides of protein N of SARS-CoV Urbani” value [3]?
**A.** 0.2

**Q.** What about the “Binding of serum 6 to looped/cyclic peptides of protein N of SARS-CoV Urbani” value [3] of the same sequence?
**A.** 0.2

**Q.** And the “Binding of serum 37 to linear peptides of protein N of SARS-CoV Urbani” value [3]?
**A.** 0.8

**Q.** What about the “Binding of serum 37 to looped/cyclic peptides of protein N of SARS-CoV Urbani” value [3] of the same sequence?
**A.** 0.9

**Q.** And the “Binding of serum 62 to linear peptides of protein N of SARS-CoV Urbani” value [3]?
**A.** 0.7

**Q.** And the “Binding of serum 62 to looped/cyclic peptides of protein N of SARS-CoV Urbani” value [3]?
**A.** 0.7

**Q.** What about the “Binding of serum London to linear peptides of protein N of SARS-CoV Urbani” value [3] of the same sequence?
**A.** 0.4

**Q.** And the “Binding of serum London to looped/cyclic peptides of protein N of SARS-CoV Urbani” value [3]?
**A.** 0.5

**Q.** What about the “Binding of serum SARS-green to linear peptides of protein N of SARS-CoV Urbani” value [3] of the same sequence?
**A.** 0.4

**Q.** What about the “Binding of serum SARS-green to looped/cyclic peptides of protein N of SARS-CoV Urbani” value [3] of the same sequence?
**A.** 1.1

**Q.** And the “Binding of serum SARS-yellow to linear peptides of protein N of SARS-CoV Urbani” value [3]?
**A.** 0.5

**Q.** And the “Binding of serum SARS-yellow to looped/cyclic peptides of protein N of SARS-CoV Urbani” value [3]?
**A.** 0.7

**Q.** And the “Binding of a rabbit serum to linear peptides of protein N of SARS-CoV Urbani (Rabbit serum linear peptides)” value [4]?
**A.** 0.1

**Q.** What about the “Binding of a rabbit serum to looped/cyclic peptides of protein N of SARS-CoV Urbani (Rabbit serum looped peptides)” value [4] of the same sequence?
**A.** 0.3

**Q.** How did the “Binding of Control Serum Blood-Bank to Looped peptides” value [1] turn out when VSGKGQQQQGQTVTK was run?
**A.** 0.7

**Q.** What about the “Binding of Control serum Blood-bank to linear peptides” value [1] of the same sequence?
**A.** 1.0

**Q.** What about the “Binding of Control serum LUMC to linear peptides” value [1] of the same sequence?
**A.** 1.4

**Q.** And the “Binding of Control serum LUMC to looped peptides” value [1]?
**A.** 0.9

**Q.** And the “Binding of antibody 03-018 to linear peptides of the N protein of SARS-CoV Urbani” value [2]?
**A.** 0.1

**Q.** What about the “Binding of antibody 03-018 to looped/cyclic peptides of the N protein of SARS-CoV Urbani” value [2] of the same sequence?
**A.** 0.3

**Q.** And the “Binding of serum 1a to linear peptide (PEPSCAN-ELISA)” value [3]?
**A.** 1.2

**Q.** And the “Binding of serum 1a to looped/cyclic peptides of protein N of SARS-CoV Urbani” value [3]?
**A.** 0.9

**Q.** And the “Binding of serum 1b to linear peptide (PEPSCAN-ELISA)” value [3]?
**A.** 0.6

**Q.** What about the “Binding of serum 1b to looped/cyclic peptides of protein N of SARS-CoV Urbani” value [3] of the same sequence?
**A.** 0.3

**Q.** What about the “Binding of serum 2 to linear peptide (PEPSCAN-ELISA)” value [3] of the same sequence?
**A.** 0.6

**Q.** What about the “Binding of serum 2 to looped/cyclic peptides of protein N of SARS-CoV Urbani” value [3] of the same sequence?
**A.** 0.5

**Q.** And the “Binding of serum 6 to linear peptide (PEPSCAN-ELISA)” value [3]?
**A.** 0.4

**Q.** And the “Binding of serum 6 to looped/cyclic peptides of protein N of SARS-CoV Urbani” value [3]?
**A.** 0.3

**Q.** What about the “Binding of serum 37 to linear peptide (PEPSCAN-ELISA)” value [3] of the same sequence?
**A.** 0.9

**Q.** And the “Binding of serum 37 to looped/cyclic peptides of protein N of SARS-CoV Urbani” value [3]?
**A.** 0.5

**Q.** And the “Binding of serum 62 to linear peptide (PEPSCAN-ELISA)” value [3]?
**A.** 1.2

**Q.** What about the “Binding of serum 62 to looped/cyclic peptides of protein N of SARS-CoV Urbani” value [3] of the same sequence?
**A.** 0.5

**Q.** And the “Binding of serum London to linear peptide (PEPSCAN-ELISA)” value [3]?
**A.** 0.6

**Q.** What about the “Binding of serum London to looped/cyclic peptides of protein N of SARS-CoV Urbani” value [3] of the same sequence?
**A.** 0.5

**Q.** And the “Binding of serum SARS-green to linear peptide (PEPSCAN-ELISA)” value [3]?
**A.** 0.5

**Q.** What about the “Binding of serum SARS-green to looped/cyclic peptides of protein N of SARS-CoV Urbani” value [3] of the same sequence?
**A.** 0.5

**Q.** And the “Binding of serum SARS-yellow to linear peptide (PEPSCAN-ELISA)” value [3]?
**A.** 1.0

**Q.** What about the “Binding of serum SARS-yellow to looped/cyclic peptides of protein N of SARS-CoV Urbani” value [3] of the same sequence?
**A.** 0.6

**Q.** What about the “Binding of a rabbit serum to linear peptides of protein N of SARS-CoV Urbani (Rabbit serum linear peptides)” value [4] of the same sequence?
**A.** 0.2

**Q.** And the “Binding of a rabbit serum to looped/cyclic peptides of protein N of SARS-CoV Urbani (Rabbit serum looped peptides)” value [4]?
**A.** 0.4

**Q.** What does the source list for VTLLPAADMDDFSRQ?
**A.** Control Serum Blood-Bank Looped peptides [1]: 0.1; Control serum Blood-bank linear peptides [1]: 0.5; Control serum LUMC linear peptides [1]: 0.5; Control serum LUMC looped peptides [1]: 0.4; Binding of antibody 03-018 to linear peptides of the N protein of SARS-CoV Urbani [2]: 0.1; Binding of antibody 03-018 to looped/cyclic peptides of the N protein of SARS-CoV Urbani [2]: 0.2; Binding of serum 1a to linear peptides of protein N of SARS-CoV Urbani [3]: 0.3; Binding of serum 1a to looped/cyclic peptides of protein N of SARS-CoV Urbani [3]: 0.3; Binding of serum 1b to linear peptides of protein N of SARS-CoV Urbani [3]: 0.1; Binding of serum 1b to looped/cyclic peptides of protein N of SARS-CoV Urbani [3]: 0.1; Binding of serum 2 to linear peptides of protein N of SARS-CoV Urbani [3]: 0.2; Binding of serum 2 to looped/cyclic peptides of protein N of SARS-CoV Urbani [3]: 0.2; Binding of serum 6 to linear peptides of protein N of SARS-CoV Urbani [3]: 0.1; Binding of serum 6 to looped/cyclic peptides of protein N of SARS-CoV Urbani [3]: 0.0; Binding of serum 37 to linear peptides of protein N of SARS-CoV Urbani [3]: 0.6; Binding of serum 37 to looped/cyclic peptides of protein N of SARS-CoV Urbani [3]: 0.1; Binding of serum 62 to linear peptides of protein N of SARS-CoV Urbani [3]: 0.6; Binding of serum 62 to looped/cyclic peptides of protein N of SARS-CoV Urbani [3]: 0.4; Binding of serum London to linear peptides of protein N of SARS-CoV Urbani [3]: 0.6; Binding of serum London to looped/cyclic peptides of protein N of SARS-CoV Urbani [3]: 0.1; Binding of serum SARS-green to linear peptides of protein N of SARS-CoV Urbani [3]: 0.3; Binding of serum SARS-green to looped/cyclic peptides of protein N of SARS-CoV Urbani [3]: 0.2; Binding of serum SARS-yellow to linear peptides of protein N of SARS-CoV Urbani [3]: 0.6; Binding of serum SARS-yellow to looped/cyclic peptides of protein N of SARS-CoV Urbani [3]: 0.2; Binding of a rabbit serum to linear peptides of protein N of SARS-CoV Urbani (Rabbit serum linear peptides) [4]: 0.0; Binding of a rabbit serum to looped/cyclic peptides of protein N of SARS-CoV Urbani (Rabbit serum looped peptides) [4]: 0.0
